Results from patent publication US9493468B2, “Antifungal 5,6-dihydro-4H-pyrrolo[1,2-a][1,4]benzo-diazepines and 6H-pyrrolo[1,2-a][1,4]benzodiazepines substituted with heterocyclic derivatives” (Janssen Pharmaceutica NV, priority 2011, dated 2016).

Key:
Type in all cases: cell-based
[1] = tested on: Rhizomucor miehei; experiment: Antifungal activity in vitro, resazurin growth inhibition: Rhizomucor miehei (IHEM13391); settings: for IC50: read-out: Inf. K: Rhizomucor miehei IHEM13391, pIC50 (converted)
Method: (§1) The standard susceptibility screen is performed in 96-well plates (U-bottom, Greiner Bio-One). Serial dilutions (2-fold or 4-fold) of 20 mM compound stock solutions are made in 100% DMSO, followed by an intermediate dilution step in water. These serial dilutions (10 μl) are then spotted onto test-plates that can be stored in the dark at 4° C. for a maximum period of 2 weeks. An adequate broad dose-range is included with 64 μM as the highest in-test concentration. The culture medium RPMI-1640 is supplemented with L-glutamine, 2% glucose and buffered with 3-(N-morpholino)-propanesulfonic acid (MOPS) at pH 7.0±0.1.
(§2) The different fungal species/isolates (Table 3a) are cryopreserved and 1/1000 diluted in medium just prior to use. A standard inoculum of 200 μl containing 10^3 colony-forming unit (cfu) is then added to each well. A positive control (100% growth=fungal culture without antifungal) and a negative control (0% growth ═RPMI-MOPS medium) are included on each plate. Optimal incubation time and temperature are dependent on the fungal species and vary from 24 h for yeasts (37° C.) to one week or more for dermatophytes (27° C.). Inhibition of fungal growth is measured after adding 10 μl of 0.005% (w/v) resazurin (Sigma Aldrich) to each well, based on the principle that living cells convert the non-fluorescent blue resazurin into the pink and fluorescent resorufin, allowing fluorimetric reading (λex 550 nm and λem 590 nm) after an additional incubation period (‘resa’ time mentioned in Table 3a).

[2] = tested on: Microsporum canis; experiment: Antifungal activity in vitro, resazurin growth inhibition: Microsporum canis (B68128); settings: for IC50: read-out: Inf. B: Microsporum canis B68128, pIC50 (converted)
Procedure, shortened: (§3)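 Broth microdilution: RPMI-1640/L-Gln/2% glucose, MOPS pH 7.0±0.1; 10^3 cfu/well; top concentration 64 μM, 2- or 4-fold steps. Dermatophytes at 27° C., one week or more. Resazurin 0.005% (w/v) added, fluorescence 550/590 nm.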

[3] = tested on: Sporothrix schenkii; experiment: Antifungal activity in vitro, resazurin growth inhibition: Sporothrix schenkii (B62482); settings: for IC50: read-out: Inf. A: Sporothrix schenkii B62482, pIC50 (converted)
Procedure, shortened: (§4)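 Compound dilutions, with 64 μM as the highest in-test level, are spotted onto plates, then an inoculum of 10^3 cfu in RPMI-1640 plus 2% glucose (MOPS, pH 7.0±0.1) is added. Plates are incubated at species-dependent time and temperature, up to a week or more at 27° C. for dermatophytes.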

[4] = tested on: Trichophyton mentagrophytes; experiment: Antifungal activity in vitro, resazurin growth inhibition: Trichophyton mentagrophytes (B70554); settings: for IC50: read-out: Inf. G: Trichophyton mentagrophytes B70554, pIC50 (converted)
Procedure, shortened: as §3

[5] = tested on: Scedosporium apiospermum; experiment: Antifungal activity in vitro, resazurin growth inhibition: Scedosporium apiospermum (IHEM3817); settings: for IC50: read-out: Inf. H: Scedosporium apiospermum IHEM3817, pIC50 (converted)
Method: as §1, §2

[6] = tested on: Rhizopus oryzae; experiment: Antifungal activity in vitro, resazurin growth inhibition: Rhizopus oryzae (IHEM5223); settings: for IC50: Rhizopus arrhizus, read-out: Inf. J: Rhizopus oryzae IHEM5223, pIC50 (converted)
Method: as §1, §2

[7] = tested on: Trichophyton rubrum; experiment: Antifungal activity in vitro, resazurin growth inhibition: Trichophyton rubrum (B68183); settings: for IC50: read-out: Inf. C: Trichophyton rubrum B68183, pIC50 (converted)
Procedure, shortened: as §3

[8] = tested on: Candida parapsilosis; experiment: Antifungal activity in vitro, resazurin growth inhibition: Candida parapsilosis (B66126); settings: for IC50: Lodderomyces parapsilosis, read-out: Inf. D: Candida parapsilosis B66126, pIC50 (converted)
Procedure, shortened: as §4

[9] = tested on: Cryptococcus neoformans; experiment: Antifungal activity in vitro, resazurin growth inhibition: Cryptococcus neoformans (B66663); settings: for IC50: read-out: Inf. F: Cryptococcus neoformans B66663, pIC50 (converted)
Procedure, shortened: as §4

[10] = tested on: Scedosporium prolificans; experiment: Antifungal activity in vitro, resazurin growth inhibition: Scedosporium prolificans (IHEM21157); settings: for IC50: Lomentospora prolificans, read-out: Inf. I: Scedosporium prolificans IHEM21157, pIC50 (converted)
Method: as §1, §2

[11] = tested on: Aspergillus fumigatus; experiment: Antifungal activity in vitro, resazurin growth inhibition: Aspergillus fumigatus (B42928); settings: for IC50: read-out: Inf. E: Aspergillus fumigatus B42928, pIC50 (converted)
Procedure, shortened: as §4

Inf. K: Rhizomucor miehei IHEM13391, pIC50 [1] | Inf. B: Microsporum canis B68128, pIC50 [2] | Inf. A: Sporothrix schenkii B62482, pIC50 [3] | Inf. G: Trichophyton mentagrophytes B70554, pIC50 [4] | Inf. H: Scedosporium apiospermum IHEM3817, pIC50 [5] | Inf. J: Rhizopus oryzae IHEM5223, pIC50 [6] | Inf. C: Trichophyton rubrum B68183, pIC50 [7] | Inf. D: Candida parapsilosis B66126, pIC50 [8] | Inf. F: Cryptococcus neoformans B66663, pIC50 [9] | Inf. I: Scedosporium prolificans IHEM21157, pIC50 [10] | Inf. E: Aspergillus fumigatus B42928, pIC50 [11] | Structure (SMILES) | other results
 |  |  |  |  |  |  |  |  |  |  | Cc1cccc2c1CN=C(c1cc3ccccc3s1)c1cccn1-2 [Compound 2] | IC50 [1]: > 64600 nM; IC50 [2]: 331 nM; IC50 [3]: 646 nM; IC50 [4]: 427 nM; IC50 [5]: 525 nM; IC50 [6]: > 64600 nM; IC50 [7]: 166 nM; IC50 [8]: > 64600 nM; IC50 [9]: 2000 nM; IC50 [10]: 1620 nM; IC50 [11]: 2000 nM
 |  |  |  |  |  |  |  |  |  |  | Clc1cccc2c1CN=C(c1ccc3sccc3c1)c1cccn1-2 [Compound 9] | IC50 [1]: 2340 nM; IC50 [2]: 107 nM; IC50 [3]: 1660 nM; IC50 [4]: 97.7 nM; IC50 [5]: 550 nM; IC50 [6]: > 64600 nM; IC50 [7]: 36.3 nM; IC50 [8]: 603 nM; IC50 [9]: 646 nM; IC50 [10]: 39.8 nM; IC50 [11]: 12.9 nM
4.52 | 6.36 | 5.17 | 6.40 | 5.68 | 5.50 | 6.99 | 5.12 | 5.28 | 6.38 | 6.00 | CC(C)n1ccc(C2=NCc3c(Cl)cccc3-n3cccc32)cc1=O [Compound 70] | 
<4.19 | 5.91 | 4.44 | 6.18 | 6.29 | <4.19 | 6.31 | 4.92 | <4.19 | 6.88 | 5.25 | CCc1ccc(C2=NCc3c(Cl)cccc3-n3cccc32)cn1 [Compound 74] | 
4.49 | 6.34 | 4.46 | 5.00 | 5.07 | <4.19 | 5.75 | <4.19 | 4.82 | 5.46 | 4.72 | CCc1ccc(C2=NCc3c(Cl)cc(Cl)cc3-n3cccc32)cn1 [Compound 76] | 
<4.19 | 5.72 | <4.19 | 5.76 | 6.12 | <4.19 | 6.33 | 4.69 | <4.19 | 6.28 | 6.63 | Clc1cc(C2=NCc3c(Cl)cccc3-n3cccc32)cnc1Cl [Compound 79] | 
<4.19 | 6.37 | <4.19 | 6.24 | 6.01 | <4.19 | 6.85 | 5.285 | <4.19 | 6.24 | 6.28 | CC(F)(F)c1ccc(C2=NCc3c(Cl)cccc3-n3cccc32)cn1 [Compound 82] | 
<4.19 | 4.97 | <4.19 | 5.88 | <4.19 | <4.19 | 6.68 | <4.19 | <4.19 | 6.09 | 5.33 | CC(F)(F)c1ccc(C2=NCc3c(F)cccc3-n3cccc32)cn1 [Compound 83] | 
<4.19 | 6.24 | 5.65 | 5.88 | 5.31 | <4.19 | 6.26 | 5.44 | 5.88 | <4.19 | 6.24 | CC(F)(F)c1ccc(C2=NCc3c(Cl)cc(Cl)cc3-n3cccc32)cn1 [Compound 84] | 
<4.19 | 6.73 | 4.63 | 6.60 | 5.44 | <4.19 | 6.81 | 5.61 | 5.86 | 4.81 | 6.28 | CC(F)(F)c1ccc(C2=NCc3c(Cl)cc(F)cc3-n3cccc32)cn1 [Compound 85] | 
<4.19 | 5.67 | 4.94 | 5.59 | 4.43 | <4.19 | 6.30 | 5.56 | 4.99 | 5.77 | 5.68 | CC(F)(F)c1ccc(C2=NCc3c(F)cc(F)cc3-n3cccc32)cn1 [Compound 86] | 
<4.19 | 5.97 | <4.19 | 5.18 | <4.19 | <4.19 | 6.54 | <4.19 | <4.19 | 5.71 | 4.94 | FC(F)(F)c1ccc(C2=NCc3ccccc3-n3cccc32)cn1 [Compound 87] | 

Structure (SMILES) | Inf. K: Rhizomucor miehei IHEM13391, pIC50 [1] | Inf. B: Microsporum canis B68128, pIC50 [2] | Inf. A: Sporothrix schenkii B62482, pIC50 [3] | Inf. G: Trichophyton mentagrophytes B70554, pIC50 [4] | Inf. H: Scedosporium apiospermum IHEM3817, pIC50 [5] | Inf. J: Rhizopus oryzae IHEM5223, pIC50 [6] | Inf. C: Trichophyton rubrum B68183, pIC50 [7] | Inf. D: Candida parapsilosis B66126, pIC50 [8] | Inf. F: Cryptococcus neoformans B66663, pIC50 [9] | Inf. I: Scedosporium prolificans IHEM21157, pIC50 [10] | Inf. E: Aspergillus fumigatus B42928, pIC50 [11] | other results
Cc1cccc2c1-n1cccc1C(c1cc3ccccc3s1)NC2.Cl (racemic) [Compound 55] | <4.19 | 5.70 | 5.04 | 5.72 | 4.86 | <4.19 | 6.30 | <4.19 | 5.32 | 5.47 | 5.55 | 
Clc1ccc(C2=NCc3c(Cl)cccc3-n3cccc32)cn1 [Compound 77] | <4.19 | 5.67 | 4.52 | 5.71 | 4.88 | <4.19 | 6.22 | 4.69 | 5.03 | 5.57 | 6.05 | 
